Counter-ions that a name gives are not always drawn. Like-named read-outs stand apart in the source and are kept apart here.
What was measured:
ATXN2-luc [1] = details: H2 cells
ATXN2-luc [2] = assay: cells; details: for activity at 1 µM: read-out: Luc at 1 μm; for activity at 10 µM: read-out: Luc at 10 μm
[3] = Table 1, 24 hrs, single 10 μM dose, Z-score of luciferase

| Compound | SD from Mean (ATXN2-luc [1]; [3]) [SD] | other results |
| --- | --- | --- |
| CCCCCCc1ccc(O)cc1O.Nc1c2ccccc2nc2ccccc12 [ACRISORCIN] | −3.600 | – |
| Nc1c2ccccc2nc2ccccc12 [AMINACRINE] | −4.103 | – |
| CC[C@H]1CN2CCc3cc(OC)c(OC)cc3[C@@H]2C[C@@H]1C[C@H]1NCCc2cc(OC)c(OC)cc21 [Emetine dihydrochloride] | −4.840 | activity at 1 µM (ATXN2-luc [2]): 18%; activity at 10 µM (ATXN2-luc [2]): 19%; SD from Mean (ATXN2-luc [1]; Table 5S, pilot screen, 10 μM): −4.840 SD |
| O=c1[nH]c(=O)n([C@H]2C[C@H](O)[C@@H](CO)O2)cc1C(F)(F)F [Trifluridine] | −5.158 | activity at 10 µM (ATXN2-luc [2]): 71%; SD from Mean (ATXN2-luc [1]; Table 5S, pilot screen, 10 μM): −5.158 SD |
| CC(C)=CCc1c(O)cc2occ(-c3ccc4c(c3)OCO4)c(=O)c2c1O [DERRUBONE] | −3.621 | activity at 1 µM (ATXN2-luc [2]): 11%; activity at 10 µM (ATXN2-luc [2]): 15%; SD from Mean (ATXN2-luc [1]; Table 5S, pilot screen, 10 μM): −3.621 SD |
| COc1cccc(C2(O)CCCCC2CN(C)C)c1 (centres unmarked) [Tramadol] | −3.415 | activity at 10 µM (ATXN2-luc [2]): 134% |
| COc1ccc(C[C@H](N)C(=O)N[C@H]2[C@@H](O)[C@H](n3cnc4c(N(C)C)ncnc43)O[C@@H]2CO)cc1 [Puromycin dihydrochloride] | – | SD from Mean (ATXN2-luc [1]; Table 1, 24 hrs, single 10 μM dose, Z-score of luciferase, dihydrochloride): −4.723 SD |
| CCCCCCCCCOc1ccc2[nH]cc(CCN)c2c1 [5-Nonyloxytryptamine] | −3.607 | activity at 10 µM (ATXN2-luc [2]): 5% |
| CO[C@H]1[C@H](O)[C@H](O[C@H]2CC[C@@]3(C=O)[C@H](CC[C@@H]4[C@@H]3CC[C@]3(C)[C@@H](C5=CC(=O)OC5)CC[C@]43O)C2)O[C@@H](C)[C@@H]1O [PERUVOSIDE] | −4.038 | activity at 1 µM (ATXN2-luc [2]): 15%; activity at 10 µM (ATXN2-luc [2]): 12%; SD from Mean (ATXN2-luc [1]; Table 5S, pilot screen, 10 μM): −4.038 SD |
| CC(=O)[C@]1(O)Cc2c(O)c3c(c(O)c2[C@@H](O[C@H]2C[C@H](N)[C@H](O)[C@H](C)O2)C1)C(=O)c1ccccc1C3=O [IDARUBICIN HCl] | – | SD from Mean (ATXN2-luc [1]; Table 1, 24 hrs, single 10 μM dose, Z-score of luciferase, HCl): −2.944 SD |
| O=C(Nc1ccc([N+](=O)[O-])cc1Cl)c1cc(Cl)ccc1O [Niclosamide] | −4.393 | – |
| CO[C@H]1C[C@H](O[C@H]2CC[C@]3(C=O)[C@H]4CC[C@]5(C)[C@@H](C6=CC(=O)OC6)CC[C@]5(O)[C@@H]4CC[C@]3(O)C2)O[C@H](C)[C@H]1O [CYMARIN] | −4.099 | activity at 1 µM (ATXN2-luc [2]): 14%; activity at 10 µM (ATXN2-luc [2]): 16%; SD from Mean (ATXN2-luc [1]; Table 5S, pilot screen, 10 μM): −4.099 SD |
| CC[C@@]1(O)C(=O)OCc2c1cc1n(c2=O)Cc2cc3ccccc3nc2-1 [Camptothecine (S+)] | −5.283 | – |
| C[C@@H]1O[C@@H](O[C@H]2C[C@@H](O)[C@]3(CO)[C@@H]4[C@@H](O)C[C@]5(C)[C@H](C6=CC(=O)OC6)CC[C@@]5(O)[C@H]4CC[C@]3(O)C2)[C@H](O)[C@H](O)[C@@H]1O [Strophantine octahydrate] | −3.624 | – |
| N=c1ccn2c(n1)O[C@H]1[C@H](O)[C@@H](CO)O[C@H]12 [ANCITABINE HYDROCHLORIDE] | −3.031 | – |
| THIMEROSAL | −5.645 | – |
| [H]/N=C(/NCCCCC)N/N=C/c1c[nH]c2ccc(OC)cc12 [TEGASEROD MALEATE] | −3.606 | activity at 10 µM (ATXN2-luc [2]): 8% |
| C[n+]1c2cc(N)ccc2cc2ccc(N)cc21.[Cl-] [ACRIFLA VINIUM HYDROCHLORIDE, ACRIFLAVINIUM HYDROCHLORIDE] | −4.148 | – |
| Nc1ccn([C@@H]2O[C@H](CO)[C@@H](O)[C@@H]2O)c(=O)n1 [CYTARABINE] | −3.681 | – |
| Cc1c2ccncc2c(C)c2c1[nH]c1ccccc12 [Ellipticine] | −3.485 | – |
| CCN(CC)CCCC(C)Nc1c2ccc(Cl)cc2nc2ccc(OC)cc12 (centres unmarked) [Quinacrine dihydrochloride dihydrate] | −3.270 | – |
| COc1ccc(C[C@H](N)C(=O)N[C@H]2[C@@H](O)[C@H](n3cnc4c(N(C)C)ncnc43)O[C@@H]2CO)cc1 [PUROMYCIN HYDROCHLORIDE] | – | SD from Mean (ATXN2-luc [1]; Table 1, 24 hrs, single 10 μM dose, Z-score of luciferase, HYDROCHLORIDE): −3.716 SD |
| CC(N/C(=N\C#N)Nc1ccncc1)C(C)(C)C (centres unmarked) | −4.875 | activity at 10 µM (ATXN2-luc [2]): 17%; SD from Mean (ATXN2-luc [1]; Table 5S, pilot screen, 10 μM): −4.875 SD |
| COC(=O)[C@]1(C)CC[C@]2(C)CC[C@]3(C)C4=CC=C5C(=CC(=O)C(O)=C5C)[C@]4(C)CC[C@@]3(C)[C@@H]2C1 [PRISTIMERIN] | −3.883 | – |
| CC(=O)O[C@@H]1C[C@@]2(C)[C@H](c3ccoc3)C[C@H]3O[C@]32[C@]2(C)C(=O)C(O)=C3C(C)(C)C(=O)C=C[C@]3(C)[C@@H]12 [ANTHOTHECOL] | −3.020 | – |

| Compound | SD from Mean (ATXN2-luc [1]; [3]) [SD] | other results |
| --- | --- | --- |
| COc1cccc2c1C(=O)c1c(O)c3c(c(O)c1C2=O)C[C@@](O)(C(C)=O)C[C@@H]3O[C@H]1C[C@H](N)[C@H](O)[C@H](C)O1 [Daunorubicin hydrochloride] | −4.155 | – |
| O=C1C=C2C(=CCOC2O)O1 (centres unmarked) [PATULIN] | −3.651 | – |
| CO[C@H]1[C@H](O)[C@H](O[C@H]2CC[C@@]3(C)[C@H](CC[C@@H]4[C@@H]3CC[C@]3(C)[C@@H](C5=CC(=O)OC5)CC[C@]43O)C2)O[C@@H](C)[C@@H]1O [NERIIFOLIN] | −3.045 | activity at 1 µM (ATXN2-luc [2]): 17%; activity at 10 µM (ATXN2-luc [2]): 17% |
| Cl.Cl.O=C1c2c(O)ccc(O)c2C(=O)c2c(NCCNCCO)ccc(NCCNCCO)c21 [MITOXANTHRONE HYDROCHLORIDE] | −4.333 | – |
| CC1=CC(=O)c2ccccc2C1=O [Menadione] | −3.434 | activity at 10 µM (ATXN2-luc [2]): 35% |
| COc1ccc(C[C@H]2NC[C@H](O)[C@H]2OC(C)=O)cc1 [Anisomycin] | −4.015 | – |
| CNC1CC(c2ccc(Cl)c(Cl)c2)c2ccccc21 (centres unmarked) [Indatraline] | – | activity at 10 µM (ATXN2-luc [2]): 6% |
| CC(C)=CCC[C@]1(C)C=Cc2c(O)c3c(c(CC=C(C)C)c2O1)O[C@]12C(=C[C@@H]4C[C@H]1C(C)(C)O[C@@]2(C/C=C(/C)C(=O)O)C4=O)C3=O [GAMBOGIC ACID] | −4.841 | – |
| CC[C@@]1(O)C[C@H](O[C@H]2C[C@H](N(C)C)[C@H](O)[C@H](C)O2)c2c(cc3c(c2O)C(=O)c2c(O)cccc2C3=O)[C@H]1C(=O)OC [AKLAVINE HYDROCHLORIDE] | −3.741 | – |
| CC(=O)Oc1cccc(O)c1 [RESORCINOL MONOACETATE] | −6.242 | activity at 1 µM (ATXN2-luc [2]): 120%; activity at 10 µM (ATXN2-luc [2]): 5%; SD from Mean (ATXN2-luc [1]; Table 5S, pilot screen, 10 μM): −6.242 SD |
| C[C@]12CC[C@H](O)C[C@H]1CC[C@@H]1[C@@H]2C[C@@H](O)[C@]2(C)[C@@H](C3=CC(=O)OC3)CC[C@]12O [Digoxigenin] | −3.264 | activity at 1 µM (ATXN2-luc [2]): 90%; activity at 10 µM (ATXN2-luc [2]): 22%; SD from Mean (ATXN2-luc [1]; Table 5S, pilot screen, 10 μM): −3.264 SD |
| N=C1C=CC(=C(c2ccc(N)cc2)c2ccc(N)cc2)C=C1 [PARAROSANILINE PAMOATE] | −2.740 | – |
| CC(=O)[C@]1(O)Cc2c(O)c3c(c(O)c2[C@@H](O[C@H]2C[C@H](N)[C@H](O)[C@H](C)O2)C1)C(=O)c1ccccc1C3=O [IDARUBICIN] | −2.719 | – |
| CO[C@H]1C=C[C@@]23c4cc5c(cc4CN(C[C@@H]2O)[C@H]3C1)OCO5 [CRINAMINE] | −3.651 | – |
| O=C1C=CC(=O)c2ccccc21 [4-NAPHTHOQUINONE] | −3.613 | – |
| CC(C)[N+](C)(CCC(C(N)=O)(c1ccccc1)c1ccccc1)C(C)C [ISOPROPAMIDE IODIDE] | −4.073 | – |
| C[C@H]1CC[C@]2(NC1)O[C@H]1C[C@H]3[C@@H]4CC[C@H]5C[C@@H](O[C@@H]6O[C@H](CO)[C@H](O[C@@H]7O[C@H](CO)[C@@H](O)[C@H](O[C@@H]8OC[C@@H](O)[C@H](O)[C@H]8O)[C@H]7O[C@@H]7O[C@H](CO)[C@@H](O)[C@H](O)[C@H]7O)[C@H](O)[C@H]6O)CC[C@]5(C)[C@H]4CC[C@]3(C)[C@H]1[C@@H]2C [TOMATINE] | −4.999 | – |
| CC(C)/N=c1\cc2n(-c3ccc(Cl)cc3)c3ccccc3nc-2cc1Nc1ccc(Cl)cc1 [CLOFAZIMINE] | −2.792 | – |
| COC(=O)C[C@](O)(CCCC(C)(C)O)C(=O)O[C@@H]1C(OC)=C[C@]23CCCN2CCc2cc4c(cc2[C@H]13)OCO4 [HOMOHARRINGTONINE] | −3.117 | – |
| Lycorine hydrochloride | −2.968 | – |
| COc1cc(/C=C/C(=O)N2CCC=CC2=O)cc(OC)c1OC [Piperlongumine] | −2.973 | – |
| CC[C@@]1(O)C[C@H](O)c2c(cc3c(c2O)C(=O)c2c(O)ccc(O)c2C3=O)[C@H]1C(=O)OC [RUTILANTINONE] | −2.722 | – |
| COc1cc([C@@H]2c3cc4c(cc3[C@@H](O[C@@H]3O[C@@H]5CO[C@@H](c6cccs6)O[C@H]5[C@H](O)[C@H]3O)[C@H]3COC(=O)[C@H]23)OCO4)cc(OC)c1O [TENIPOSIDE] | −2.832 | – |
| O=C1c2c(O)ccc(O)c2C(=O)c2c(NCCNCCO)ccc(NCCNCCO)c21 [Mitoxantrone dihydrochloride] | −3.666 | – |

Reference: US20260137707A1, “METHODS OF MODULATING ATXN2 EXPRESSION” (University of Utah Research Foundation, priority 2022, published 2026)
